Data reported in ChEMBL document CHEMBL3822383, “Coumarin sulfonamides derivatives as potent and selective COX-2 inhibitors with efficacy in suppressing cancer proliferation and metastasis” (Bioorg Med Chem Lett, 2016).
Calls of active or inactive are those of the source. The rule behind the calls is not given here.

Legend:
HeLa [1] = assay: Induction of apoptosis in human HeLa cells assessed as necrotic cells at 4 uM after 24 hrs by Annexin V/propidium iodide based flow cytometric analysis (reference value: 0.441 %); format: functional
HeLa [2] = assay: Induction of apoptosis in human HeLa cells assessed as early apoptotic cells at 8 uM after 24 hrs by Annexin V/propidium iodide based flow cytometric analysis (reference value: 0.902 %); format: functional
[3] = target: Prostaglandin G/H synthase 1 (Homo sapiens, UniProt P23219); assay: Inhibition of human COX1 using arachidonic acid assessed as production of PGF2alpha after 5 mins by ELISA
Chain of Prostaglandin G/H synthase 1 (P23219 whole entry): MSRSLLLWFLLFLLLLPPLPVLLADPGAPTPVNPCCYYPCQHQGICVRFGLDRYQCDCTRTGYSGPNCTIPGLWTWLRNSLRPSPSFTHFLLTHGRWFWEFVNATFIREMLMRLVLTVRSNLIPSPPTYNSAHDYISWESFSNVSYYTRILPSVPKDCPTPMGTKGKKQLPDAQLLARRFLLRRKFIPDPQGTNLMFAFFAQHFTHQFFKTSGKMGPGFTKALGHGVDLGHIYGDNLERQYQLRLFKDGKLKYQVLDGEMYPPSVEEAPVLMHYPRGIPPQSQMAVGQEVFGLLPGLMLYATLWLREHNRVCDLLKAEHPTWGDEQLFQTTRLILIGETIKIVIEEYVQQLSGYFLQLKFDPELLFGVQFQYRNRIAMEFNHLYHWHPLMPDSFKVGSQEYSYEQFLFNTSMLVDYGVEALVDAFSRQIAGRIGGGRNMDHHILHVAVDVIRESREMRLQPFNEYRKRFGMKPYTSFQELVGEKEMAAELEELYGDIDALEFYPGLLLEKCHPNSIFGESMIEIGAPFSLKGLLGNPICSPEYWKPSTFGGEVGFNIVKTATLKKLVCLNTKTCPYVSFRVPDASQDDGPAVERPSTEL

HeLa [4] = assay: Induction of apoptosis in human HeLa cells assessed as viable cells at 1 uM after 24 hrs by Annexin V/propidium iodide based flow cytometric analysis (reference value: 95.5 %); format: functional; settings: read-out: Activity
HeLa [5] = assay: Induction of apoptosis in human HeLa cells assessed as early apoptotic cells at 1 uM after 24 hrs by Annexin V/propidium iodide based flow cytometric analysis (reference value: 0.902 %); format: functional
HeLa [6] = assay: Induction of apoptosis in human HeLa cells assessed as late apoptotic cells at 1 uM after 24 hrs by Annexin V/propidium iodide based flow cytometric analysis (reference value: 3.16 %); format: functional
HeLa [7] = assay: Induction of apoptosis in human HeLa cells assessed as viable cells at 2 uM after 24 hrs by Annexin V/propidium iodide based flow cytometric analysis (reference value: 95.5 %); format: functional; settings: read-out: Activity
HeLa [8] = assay: Induction of apoptosis in human HeLa cells assessed as necrotic cells at 1 uM after 24 hrs by Annexin V/propidium iodide based flow cytometric analysis (reference value: 0.441 %); format: functional
HeLa [9] = assay: Induction of apoptosis in human HeLa cells assessed as early apoptotic cells at 2 uM after 24 hrs by Annexin V/propidium iodide based flow cytometric analysis (reference value: 0.902 %); format: functional
HeLa [10] = assay: Induction of apoptosis in human HeLa cells assessed as late apoptotic cells at 2 uM after 24 hrs by Annexin V/propidium iodide based flow cytometric analysis (reference value: 3.16 %); format: functional
HeLa [11] = assay: Induction of apoptosis in human HeLa cells assessed as necrotic cells at 2 uM after 24 hrs by Annexin V/propidium iodide based flow cytometric analysis (reference value: 0.441 %); format: functional
HeLa [12] = assay: Induction of apoptosis in human HeLa cells assessed as viable cells at 4 uM after 24 hrs by Annexin V/propidium iodide based flow cytometric analysis (reference value: 95.5 %); format: functional; settings: read-out: Activity
HeLa [13] = assay: Induction of apoptosis in human HeLa cells assessed as early apoptotic cells at 4 uM after 24 hrs by Annexin V/propidium iodide based flow cytometric analysis (reference value: 0.902 %); format: functional
HeLa [14] = assay: Induction of apoptosis in human HeLa cells assessed as late apoptotic cells at 4 uM after 24 hrs by Annexin V/propidium iodide based flow cytometric analysis (reference value: 3.16 %); format: functional
HeLa [15] = assay: Induction of apoptosis in human HeLa cells assessed as viable cells at 8 uM after 24 hrs by Annexin V/propidium iodide based flow cytometric analysis (reference value: 95.5 %); format: functional; settings: read-out: Activity
HeLa [16] = assay: Induction of apoptosis in human HeLa cells assessed as late apoptotic cells at 8 uM after 24 hrs by Annexin V/propidium iodide based flow cytometric analysis (reference value: 3.16 %); format: functional
HeLa [17] = assay: Induction of apoptosis in human HeLa cells assessed as necrotic cells at 8 uM after 24 hrs by Annexin V/propidium iodide based flow cytometric analysis (reference value: 0.441 %); format: functional
HeLa [18] = assay: Induction of apoptosis in human HeLa cells assessed as viable cells at 3 uM after 12 hrs by Annexin V/propidium iodide based flow cytometric analysis (reference value: 96 %); format: functional; settings: read-out: Activity
HeLa [19] = assay: Induction of apoptosis in human HeLa cells assessed as early apoptotic cells at 3 uM after 12 hrs by Annexin V/propidium iodide based flow cytometric analysis (reference value: 1.61 %); format: functional
HeLa [20] = assay: Induction of apoptosis in human HeLa cells assessed as late apoptotic cells at 3 uM after 12 hrs by Annexin V/propidium iodide based flow cytometric analysis (reference value: 2.21 %); format: functional
HeLa [21] = assay: Induction of apoptosis in human HeLa cells assessed as necrotic cells at 3 uM after 12 hrs by Annexin V/propidium iodide based flow cytometric analysis (reference value: 0.441 %); format: functional
HeLa [22] = assay: Induction of apoptosis in human HeLa cells assessed as necrotic cells at 3 uM after 12 hrs by Annexin V/propidium iodide based flow cytometric analysis (reference value: 0.207 %); format: functional
HeLa [23] = assay: Induction of apoptosis in human HeLa cells assessed as early apoptotic cells at 3 uM after 24 hrs by Annexin V/propidium iodide based flow cytometric analysis (reference value: 1.61 %); format: functional
HeLa [24] = assay: Induction of apoptosis in human HeLa cells assessed as late apoptotic cells at 3 uM after 24 hrs by Annexin V/propidium iodide based flow cytometric analysis (reference value: 2.21 %); format: functional
HeLa [25] = assay: Induction of apoptosis in human HeLa cells assessed as viable cells at 3 uM after 24 hrs by Annexin V/propidium iodide based flow cytometric analysis (reference value: 96 %); format: functional; settings: read-out: Activity
HeLa [26] = assay: Induction of apoptosis in human HeLa cells assessed as necrotic cells at 3 uM after 24 hrs by Annexin V/propidium iodide based flow cytometric analysis (reference value: 0.207 %); format: functional
HeLa [27] = assay: Induction of apoptosis in human HeLa cells assessed as viable cells at 3 uM after 36 hrs by Annexin V/propidium iodide based flow cytometric analysis (reference value: 96 %); format: functional; settings: read-out: Activity
HeLa [28] = assay: Induction of apoptosis in human HeLa cells assessed as early apoptotic cells at 3 uM after 36 hrs by Annexin V/propidium iodide based flow cytometric analysis (reference value: 1.61 %); format: functional
HeLa [29] = assay: Induction of apoptosis in human HeLa cells assessed as late apoptotic cells at 3 uM after 36 hrs by Annexin V/propidium iodide based flow cytometric analysis (reference value: 2.21 %); format: functional
HeLa [30] = assay: Induction of apoptosis in human HeLa cells assessed as necrotic cells at 3 uM after 36 hrs by Annexin V/propidium iodide based flow cytometric analysis (reference value: 0.207 %); format: functional
HeLa [31] = assay: Inhibition of cell adhesion in human HeLa cells assessed as reduction in cell attachment at 2 uM after 1 hr by MTT assay; format: functional
HeLa [32] = assay: Inhibition of cell adhesion in human HeLa cells assessed as reduction in cell attachment after 1 hr by MTT assay; format: functional, cell-based
HeLa [33] = assay: Reduction in cell migration in human HeLa cells up to 4 uM by transwell migration assay; format: functional, cell-based
HeLa [34] = assay: Reduction in cell invasion in human HeLa cells up to 4 uM by transwell invasion assay; format: functional, cell-based
HeLa [35] = assay: Inhibition of PGE2 secretion in human HeLa cells at 0.1 uM after 24 hrs by EIA monoclonal assay; format: functional, cell-based
HeLa [36] = assay: Antiproliferative activity in PGE2-induced human HeLa cells at 2 uM after 12 to 24 hrs by MTT assay; format: functional, cell-based
HeLa [37] = assay: Induction of apoptosis in PGE2-induced human HeLa cells assessed as viable cells at 3 uM after 24 hrs by Annexin V/propidium iodide based flow cytometric analysis; format: functional, cell-based
HeLa [38] = assay: Induction of apoptosis in PGE2-induced human HeLa cells assessed as early apoptotic cells at 3 uM after 24 hrs by Annexin V/propidium iodide based flow cytometric analysis; format: functional, cell-based
HeLa [39] = assay: Induction of apoptosis in PGE2-induced human HeLa cells assessed as late apoptotic cells at 3 uM after 24 hrs by Annexin V/propidium iodide based flow cytometric analysis; format: functional, cell-based
HeLa [40] = assay: Induction of apoptosis in PGE2-induced human HeLa cells assessed as necrotic cells at 3 uM after 24 hrs by Annexin V/propidium iodide based flow cytometric analysis; format: functional, cell-based
HeLa [41] = assay: Reduction in cell migration in PGE2-induced human HeLa cells at 2 uM by transwell migration assay; format: functional, cell-based
HeLa [42] = assay: Reduction in cell invasion in PGE2-induced human HeLa cells at 2 uM by transwell invasion assay; format: functional, cell-based
HeLa [43] = assay: Inhibition of cell adhesion in PGE2-induced human HeLa cells assessed as reduction in cell attachment at 2 uM after 12 hrs by MTT assay; format: functional, cell-based
HeLa [44] = assay: cells; settings: Homo sapiens, 24 h
Description: Antiproliferative activity against human HeLa cells after 24 hrs by MTT assay

HepG2 = assay: cells; settings: Homo sapiens, HepG2, 24 h
Description: Antiproliferative activity against human HepG2 cells after 24 hrs by MTT assay

cells [45] = settings: Mus musculus, B16-F10, 24 h
Description: Antiproliferative activity against mouse B16F10 cells after 24 hrs by MTT assay

A549 = assay: cells; settings: Homo sapiens, A549, 24 h
Description: Antiproliferative activity against human A549 cells after 24 hrs by MTT assay

cells [46] = settings: Homo sapiens, HEK-293T, 24 h
Description: Antiproliferative activity against human 293T cells after 24 hrs by MTT assay

cells [47] = settings: Homo sapiens, L02, 24 h
Description: Antiproliferative activity against human LO2 cells after 24 hrs by MTT assay

Question: With NS(=O)(=O)c1ccc(-n2nc(C(=O)N/N=C/c3c(Cl)c4ccccc4oc3=O)cc2-c2ccc(C(F)(F)F)cc2)cc1 as the compound, how does the Activity (HeLa [1]) read?
Answer: 2.14%

Question: What about the Activity (HeLa [2]) of the same compound?
Answer: 33.6%

Question: And the IC50 [3]?
Answer: 48200 nM

Question: And the viability at 1 µM (HeLa [4])?
Answer: 94%

Question: What about the Activity (HeLa [5]) of the same compound?
Answer: 2.12%

Question: And the Activity (HeLa [6])?
Answer: 3.58%

Question: What about the viability at 2 µM (HeLa [7]) of the same compound?
Answer: 85.9%

Question: And the Activity (HeLa [8])?
Answer: 0.301%

Question: What about the Activity (HeLa [9]) of the same compound?
Answer: 7.64%

Question: And the Activity (HeLa [10])?
Answer: 6.29%

Question: And the Activity (HeLa [11])?
Answer: 0.143%

Question: What about the viability at 4 µM (HeLa [12]) of the same compound?
Answer: 62%

Question: What about the Activity (HeLa [13]) of the same compound?
Answer: 24.8%

Question: What about the Activity (HeLa [14]) of the same compound?
Answer: 11%

Question: What about the viability at 8 µM (HeLa [15]) of the same compound?
Answer: 49%

Question: And the Activity (HeLa [16])?
Answer: 15.6%

Question: What about the Activity (HeLa [17]) of the same compound?
Answer: 1.82%

Question: What about the viability at 3 µM (HeLa [18]) of the same compound?
Answer: 92.9%

Question: What about the Activity (HeLa [19]) of the same compound?
Answer: 3.79%

Question: And the Activity (HeLa [20])?
Answer: 3.02%

Question: What about the Activity (HeLa [21]) of the same compound?
Answer: 0.276%

Question: What about the Activity (HeLa [22]) of the same compound?
Answer: 0.276%

Question: What about the Activity (HeLa [23]) of the same compound?
Answer: 14.8%

Question: What about the Activity (HeLa [24]) of the same compound?
Answer: 8.83%

Question: And the viability at 3 µM (HeLa [25])?
Answer: 76.3%

Question: What about the Activity (HeLa [26]) of the same compound?
Answer: 0.049%

Question: What about the viability at 3 µM (HeLa [27]) of the same compound?
Answer: 66.6%

Question: What about the Activity (HeLa [28]) of the same compound?
Answer: 21.6%

Question: And the Activity (HeLa [29])?
Answer: 10.2%

Question: And the Activity (HeLa [30])?
Answer: 1.62%

Question: And the inhibition at 2 µM (HeLa [31])?
Answer: 60%

Question: What about the inhibition (HeLa [32]) of the same compound?
Answer: Dose-dependent effect

Question: What about the Activity (HeLa [33]) of the same compound?
Answer: Dose-dependent effect

Question: And the Activity (HeLa [34])?
Answer: Active

Question: And the inhibition (HeLa [35])?
Answer: Active

Question: What about the Activity (HeLa [36]) of the same compound?
Answer: Active

Question: And the Activity (HeLa [37])?
Answer: Active

Question: And the Activity (HeLa [38])?
Answer: Active

Question: And the Activity (HeLa [39])?
Answer: Active

Question: What about the Activity (HeLa [40]) of the same compound?
Answer: Active

Question: And the Activity (HeLa [41])?
Answer: Active

Question: And the Activity (HeLa [42])?
Answer: Active

Question: What about the inhibition (HeLa [43]) of the same compound?
Answer: Active

Question: What about the IC50 (HeLa [44]) of the same compound?
Answer: 360 nM

Question: What about the IC50 (HepG2) of the same compound?
Answer: 850 nM

Question: And the IC50 (cells [45])?
Answer: 2270 nM

Question: And the IC50 (A549)?
Answer: 2560 nM

Question: And the IC50 (cells [46])?
Answer: 234000 nM

Question: What about the IC50 (cells [47]) of the same compound?
Answer: 267000 nM
